Where two headings read alike, the source gives them in different places.

Assay type in all cases: cell-based, human
In data set [1] the test system is HeLa cells. The experiment in a line: Alamar Blue cell viability (cytotoxicity). On the procedure: Cytotoxicity of polymer–peptide conjugates was determined using Alamar Blue® cell viability reagent (Thermo Fischer Scientific, Czech Republic) in HeLa cells according to the manufacturer’s protocol. Cells were seeded into 96-well plates in 100 μL of DMEM 24 h prior to experiment at a density of 5 × 10^3 cells per well. […] […] Then the medium was replaced by 90 μL of fresh medium with 10 μL of Alamar Blue® reagent and incubated for the next 4 h in 5% CO2 at 37 °C. […] The fluorescence intensity was measured using a Synergy Neo plate reader (Bio-Tek, Prague, Czech Republic) with excitation at 550 nm and emission at 590 nm. Non-treated cells were used as a negative control and free pirarubicin as a positive control. All samples were measured in triplicate in three independent experiments. The half maximal inhibitory concentration value IC50 was expressed as a concentration of CPP ± SD and pirarubicin ± SD, respectively. […] In the case of drug bearing polymer conjugates, the concentration varied from 43.2 nM to 44.3 μM of pirarubicin.
Results were plotted as average ± standard deviation (SD). All statistical analysis was performed using GraphPad Prism 5.03. An ANOVA test was followed by Dunnett’s or Turkey’s test. A value of *** p < 0.001, ** p < 0.01, and * p < 0.05 was considered statistically significant. All IC50 (the concentrations of the CPP or drug reducing the cell viability to one half) values were obtained from calculations corresponding to fitting by logistic S-curves.
Background: Alamar Blue is a resazurin reagent that responds to reducing activity.

For data set [2], the system named is HeLa cells. The experiment in a line: Flow cytometry of cellular uptake of fluorescently labeled polymer–peptide conjugates (median fluorescence intensity relative to control polymer REF). The note with it: for internalization efficiency compared with the control polymer: HeLa cells, flow cytometry, concentration and temperature not stated at this place (abstract); for uptake relative to control polymer at the highest concentration: highest concentration used; for cell penetration compared with control polymer (in words): any of the concentrations used, at 4 °C and at 37 °C. On the procedure:
The HeLa cell line (LGC Standards, Poland) was cultured in Dulbecco’s modified Eagle medium (DMEM) supplemented with 100 U of penicillin, 100 μg⋅mL^−1 streptomycin, and 10% fetal bovine serum in 25 cm^2 flasks. Cells were cultivated in a humidified incubator at 37 °C with 5% CO2. The chemicals were purchased from Life Technologies/Gibco, Prague, Czech Republic.
The HeLa cell line was incubated with fluorescently labeled polymer–peptide conjugates for 1 h at 4 °C and 37 °C. For measurement at 4 °C, HeLa cells were harvested with 0.05% trypsin (Thermo Fisher Scientific, Czech Republic) at 37 °C for 3 min. Subsequently, cells were washed with 0.5% bovine serum albumin in phosphate buffered saline (0.01 M) (BSA/PBS), pre-cooled for 15 min and incubated with fluorescently labeled polymer–peptide conjugates in the dark for 1 h at 4 °C. After incubation, the cells were washed once with BSA/PBS, centrifuged at 1500 rpm for 3 min and re-suspended in 1 μM Sytox Blue Dead Cell Stain (Thermo Fisher Scientific, Czech Republic) to distinguish live and dead cells. For measurement at 37 °C, HeLa cells were seeded 24 h prior to the experiment on 24-well plates at a density 1.5 × 10^5 cells per well. Polymer–peptide conjugates were then added together with fresh DMEM and incubated at 37 °C in 5% CO2 and humidified atmosphere. Subsequently, cells were washed with BSA/PBS, harvested with 0.05% trypsin at 37 °C for 3 min, transferred to tubes, centrifuged at 1500 rpm for 3 min, and re-suspended in PBS/BSA containing 1 μM Sytox Blue Dead Cell Stain (Thermo Fisher Scientific, Czech Republic). All measurements were acquired using a FACSVerse™ flow cytometer (Becton Dickinson Czechia, s.r.o., Prague, Czech Republic) and analyzed by FlowJo software version 10 (Tree Star Inc., Ashland, OR, USA); the median of fluorescence intensity was determined. The concentration of polymer conjugates was adjusted to the value corresponding to a final concentration of peptide 1000 μM. This stock solution was diluted with PBS to obtain all used concentrations. […] HeLa cells without a polymer were used as a negative control. All samples were measured in duplicates in two independent experiments.
The uptake of the polymer–peptide conjugates incubated with the cells was measured using flow cytometry.
(A flow cytometer gives signals particle by particle.)

Data set [3] deals with HeLa cells. The experiment in a line: Laser scanning confocal microscopy of intracellular uptake and localization. The procedure:
Laser scanning confocal microscopy (LSCM) was used to visualize the intracellular uptake of selected polymer conjugates. HeLa cells were seeded 24 h prior to an experiment (1.5 × 10^5 cells per well) to confocal chambers (1 μ-dishes providing a 35 mm^2 growth area with 500 μL cell culture medium) with four chambers in a 20 mm micro-well and a #1 cover glass (0.13–0.16 mm) (Bio-Port Europe, Prague, Czech Republic). Medium was replaced by fresh medium with dissolved polymer–peptide conjugates and added to confocal chamber and incubated either at 4 °C or at 37 °C for 1 h. After the incubation time, cells were washed twice with PBS and measured by confocal microscopy. Hoechst 33342 was used for visualization of cell nuclei (5 μg·mL^−1, Thermo Fischer Scientific, Czech Republic) and cell membranes were stained with CellMask™ Green (1 μg⋅mL^−1, Thermo Fisher Scientific, Czech Republic) for 1 h before imaging at 4 °C or 10 min at 37 °C. Observation of samples was performed by Olympus IX83 coupled with FV10-ASW software (Olympus, Prague, Czech Republic). The samples were scanned using the 60× oil objective Plan ApoN (1.42 numerical apertures). Dy633-labeled polymers were excited at 637 nm and emitted light was detected through a 650–750 nm filter. For the detection of Hoechst 33342 dye-stained nuclei, an excitation wavelength of 405 nm was used and emitted light was detected through a 420–500 nm filter. CellMask Green-stained cell membranes were excited at 488 nm and the emitted light was detected through a 500–600 nm filter. All samples were measured in duplicate in two independent experiments.
A confocal microscopy study was performed to support and extend the data obtained by flow cytometry. Confocal microscopy imaging was used to map localization of CPP conjugates. The polymer conjugates with the highest cell penetration activity, TAT12 and PEN12, were selected for the confocal microscopy experiments. Conjugate REF was used as a control. The polymers were incubated with HeLa cells for 1, 2, or 4 h at 4 or 37 °C.

The mark [4] stands for this setting: 24 h incubation, Alamar Blue, Dy633-labeled conjugates, mean ± SD, triplicate in three independent experiments, for REF virtual CPP concentration of the same weight concentration, read-out: IC50 (concentration of the CPP reducing the cell viability to one half).
Where [5] appears, read: 4 °C (cells precooled 15 min), 50 μM of CPP, up to 4 h.
[6] abbreviates: 37 °C, 50 μM of CPP, 1, 2 or 4 h.

For the compound `COc1cccc2c1C(=O)c1c(O)c3c(c(O)c1C2=O)C[C@@](O)(C(=O)CO)C[C@@H]3O[C@H]1C[C@H](N)[C@H](O[C@@H]2CCCCO2)[C@H](C)O1` [Pir, Pirarubicin, reference compound], the IC50 in the data set with HeLa cells [1] (Homo sapiens, 24 h incubation, Alamar Blue, expressed as pirarubicin, mean ± SD, triplicate in three independent experiments, read-out: IC50 (concentration of the Pir reducing the cell viability to one half)) was found to be 1.03 ± 0.3 µg/mL.
On to “GRKKRRQRRR [P-T12-Pir, HPMA copolymer bearing pirarubicin via GFLG and TAT via dodeca(ethylene glycol) spacer]”, for which the “IC50 lower compared with P-Pir conjugate without any CPP” value in the data set with HeLa cells [1] (24 h incubation) was “more than two”. For the same compound, the “IC50 (concentration of the Pir reducing the cell viability to one half)” value in the data set with HeLa cells [1] (24 h incubation, Alamar Blue, expressed as pirarubicin, mean ± SD, triplicate in three independent experiments) stood at 18.3 ± 6.2 µg/mL. For the same compound, the IC50 in the data set on HeLa cells [1] (24 h incubation, read-out: concentration of CPP present on the conjugate at IC50 value) is ~20.7 µM. Further, the “cytotoxicity (IC50 as pirarubicin) after longer incubation time” value in the data set on HeLa cells [1] (72 h incubation, Alamar Blue) was found to be 11.1 ± 1.6 µg/mL.
GRKKRRQRRR [TAT4]: in the data set on HeLa cells [1] (setting [4]), the IC50 turned out to be 95.3 ± 2.6 µM. In addition, in the data set with HeLa cells [2], the “internalization efficiency compared with the control polymer” value is reported as “about 40 times”. Also, the “cell penetration level compared with REF” value in the data set on HeLa cells [2] (HeLa, 4 °C, 1 h, 1 μM of CPP) is recorded as “seven”. Also, the “enhanced cellular uptake (relative fluorescence intensity) compared to REF” value in the data set on HeLa cells [2] (HeLa, 37 °C, 1 h, 0.1 μM of CPP) is reported as 14 times.
Regarding GRKKRRQRRR [TAT12], the “cellular localization / internalization by confocal microscopy (in words)” value (from here on “cellular localization / internalization”) in the data set with HeLa cells [3] (setting [5]) was “partially localized even in the cytosol”. Besides, in the data set with HeLa cells [3] (setting [6]), the “cellular localization / internalization” value is reported as “localized in cytosol already after 1 h” and the “presence of the polymer in the cell nuclei (in words)” value is “negligible”. For the same compound, the “penetration efficacy relative to spacer-free conjugate TAT0” value in the data set on HeLa cells [2] (HeLa, 4 °C, 1 h, 50 μM of CPP) was determined as 2.8 times.
With PFVYLI [PF4], in the data set with HeLa cells [2] (HeLa, 4 °C (precooled cells), 1 h, median fluorescence intensity ratio to REF), the “increase in uptake relative to REF” value is “up to 2 times”. Further, the “uptake relative to control polymer at the highest concentration” value in the data set on HeLa cells [2] (HeLa, 4 °C, 1 h) is given as 1.8 times; in the data set on HeLa cells [2] (HeLa, 37 °C, 1 h), 1.8 times.
Turning to RRMKWKK [PEN4], the IC50 in the data set with HeLa cells [1] (setting [4]) was 82.9 ± 4.8 µM. The “internalization efficiency compared with the control polymer” value with HeLa cells [2] is ~15 times. The “effect of tetra(ethylene glycol) spacer on penetration compared with spacer-free PEN0 (in words)” value in the data set with HeLa cells [2] (HeLa, 4 °C, 1 h) was “not long enough to improve the penetration”. Also, in the data set on HeLa cells [2] (HeLa, 4 °C, 1 h, 1 and 10 μM of CPP), the “uptake compared with TAT4 (in words)” value is reported as “slightly outperformed TAT4”. Moreover, the “concentration dependence of relative uptake (in words)” value with HeLa cells [2] (HeLa, 4 °C, 1 h, 25 and 50 μM of CPP) is listed as “did not exhibit any more improvement”. Also, in the data set on HeLa cells [2] (HeLa, 37 °C, 1 h, all measured concentrations), the “relative increase of fluorescence intensity compared to REF, versus TAT4 (in words)” value was “lower than in the case of TAT4”.
As to RRMKWKK [PEN12], the “cellular localization / internalization” value in the data set on HeLa cells [3] (setting [5]) is “much less pronounced at 4 °C”; in the data set on HeLa cells [3] (setting [6]), “lower cell internalization compared with TAT12”. The “penetration efficacy relative to shorter analog PEN4” value in the data set on HeLa cells [2] (HeLa, 4 °C, 1 h, 25 μM of CPP) is “two”.
With RYIRS [RY4], the “cell penetration compared with control polymer (in words)” value in the data set with HeLa cells [2] (HeLa, 1 h) is “do not penetrate cells better than the control polymer”.
Still for that read-out and setting: next, VPMLK [VP4]: “do not penetrate cells better than the control polymer”; YARAAARQARA [YA4]: “do not penetrate cells better than the control polymer”.

(Values after PMC7023232, “Polymer Cancerostatics Containing Cell-Penetrating Peptides: Internalization Efficacy Depends on Peptide Type and Spacer Length” (Pharmaceutics, 2020).)
